According to PubChem BioAssay (NCI):
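Following 48 hours of exposure in 96-well plates, responses at five concentrations were used to interpolate endpoints linearly. Abbreviation: GI50, concentration required for 50% inhibition of growth. TGI is the concentration that stops growth completely.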

What was measured:
Assay in all cases: NCI anticancer screen, dose series, 48 h
[1] = tested on: EKVX NSCLC
[2] = tested on: TK-10 renal
[3] = tested on: UO-31 renal
[4] = tested on: K-562 leukemia
[5] = tested on: SN12C renal
[6] = tested on: NCI-H522 lung
[7] = tested on: UACC-62 melanoma
[8] = tested on: SK-MEL-5 melanoma
[9] = tested on: CCRF-CEM leukemia
[10] = tested on: M14 melanoma
[11] = tested on: SF-539 CNS
[12] = tested on: SK-MEL-2 melanoma
[13] = tested on: HL-60(TB) leukemia
[14] = tested on: SR leukemia
[15] = tested on: PC-3 prostate
[16] = tested on: HT29 colon
[17] = tested on: HCC-2998 colon
[18] = tested on: IGROV1 ovarian
[19] = tested on: SNB-19 CNS
[20] = tested on: RXF 393 renal
[21] = tested on: SK-OV-3 ovarian
[22] = tested on: MDA-MB-231 breast
[23] = tested on: T-47D breast
[24] = tested on: KM12 colon
[25] = tested on: SK-MEL-28 melanoma
[26] = tested on: SF-268 CNS
[27] = tested on: OVCAR-5 ovarian
[28] = tested on: 786-0 renal
[29] = tested on: NCI-H226 lung
[30] = tested on: OVCAR-8 ovarian
[31] = tested on: SNB-75 CNS
[32] = tested on: OVCAR-4 ovarian
[33] = tested on: BT-549 breast
[34] = tested on: A498 renal
[35] = tested on: DU-145 prostate
[36] = tested on: HS 578T breast
[37] = tested on: MDA-MB-435
[38] = tested on: RPMI-8226 leukemia
[39] = tested on: A549 NSCLC
[40] = tested on: NCI/ADR-RES ovarian
[41] = tested on: MDA-MB-468 breast
[42] = tested on: HOP-92 NSCLC
[43] = tested on: MALME-3M melanoma
[44] = tested on: UACC-257 melanoma
[45] = tested on: CAKI-1 renal

For `Cn1cc(-c2cc(N)n3nc(-c4c[nH]c5ccccc45)cc3n2)c2cc(Br)ccc21`, the GI50 [1] was 1.83 µM, the TGI [1] was 4.37 µM and the GI50 [2] was 2.08 µM. It also gave a TGI [2] of 5.53 µM, a GI50 [3] of 1.71 µM and a TGI [3] of 3.53 µM. For the same molecule, the GI50 [4] was 3.44 µM, the TGI [4] was greater than 100 µM and the GI50 [5] was 1.91 µM. The TGI [5] was 3.87 µM, the GI50 [6] was 1.65 µM and the TGI [6] was 3.34 µM. The GI50 [7] was 1.65 µM, the TGI [7] was 3.28 µM and the GI50 [8] was 1.92 µM. For the same molecule, the TGI [8] was 3.82 µM, the GI50 [9] was 2.24 µM and the TGI [9] was 6.75 µM. It also gave a GI50 [10] of 1.79 µM, a TGI [10] of 4.09 µM and a GI50 [11] of 1.75 µM. For the same molecule, the TGI [11] was 3.22 µM, the GI50 [12] was 1.88 µM and the TGI [12] was 4.27 µM. The GI50 [13] was 2.86 µM, the TGI [13] was 9.81 µM and the GI50 [14] was 5.95 µM. The TGI [14] was greater than 100 µM, the GI50 [15] was 2.09 µM and the TGI [15] was 5.36 µM. The GI50 [16] was 1.77 µM, the TGI [16] was 3.62 µM and the GI50 [17] was 1.78 µM. It also gave a TGI [17] of 3.39 µM, a GI50 [18] of 1.99 µM and a TGI [18] of 4.52 µM. It also gave a GI50 [19] of 2.02 µM, a TGI [19] of 4.39 µM and a GI50 [20] of 1.85 µM. For the same molecule, the TGI [20] was 4.65 µM, the GI50 [21] was 6.31 µM and the TGI [21] was greater than 100 µM. The GI50 [22] was 1.91 µM, the TGI [22] was 3.5 µM and the GI50 [23] was 1.97 µM. For the same molecule, the TGI [23] was 4.72 µM, the GI50 [24] was 1.94 µM and the TGI [24] was 4.09 µM. It also gave a GI50 [25] of 1.85 µM, a TGI [25] of 3.52 µM and a GI50 [26] of 2.13 µM. The TGI [26] was 5.87 µM, the GI50 [27] was 1.91 µM and the TGI [27] was 3.93 µM. For the same molecule, the GI50 [28] was 1.88 µM, the TGI [28] was 4.1 µM and the GI50 [29] was 4.76 µM. The TGI [29] was 42.9 µM, the GI50 [30] was 2.84 µM and the TGI [30] was 8.51 µM. It also gave a GI50 [31] of 2.05 µM, a TGI [31] of 9.74 µM and a GI50 [32] of 3.06 µM. For the same molecule, the TGI [32] was 11.2 µM, the GI50 [33] was 14.1 µM and the TGI [33] was 44.6 µM. For the same molecule, the GI50 [34] was 2.06 µM, the TGI [34] was 7.26 µM and the GI50 [35] was 3.33 µM. For the same molecule, the TGI [35] was 12.3 µM, the GI50 [36] was 2.56 µM and the TGI [36] was 9.25 µM. The GI50 [37] was 2.07 µM, the TGI [37] was 4.65 µM and the GI50 [38] was 2.98 µM. It also gave a TGI [38] of 9.57 µM, a GI50 [39] of 1.91 µM and a TGI [39] of 5.18 µM. The GI50 [40] was 2.22 µM, the TGI [40] was 5.09 µM and the GI50 [41] was 1.56 µM. It also gave a TGI [41] of 3.04 µM, a GI50 [42] of 2.25 µM and a TGI [42] of 5.54 µM. It also gave a GI50 [43] of 1.87 µM, a TGI [43] of 3.31 µM and a GI50 [44] of 1.95 µM. It also gave a TGI [44] of 4.31 µM, a GI50 [45] of 1.58 µM and a TGI [45] of 3.16 µM.
